Experimental data: patent publication US20150044346A1, “USE OF OXAZOLINES AS AROMA/FLAVOUR PRECURSORS” (NESTEC S.A., priority 2012, published 2015)

Assays:
[1] = SPME-GCxGC-TOFMS of 3-methylbutanal in coffee mix spiked with oxazoline; assay type: physicochemical
Description: (§1) Coffee mix powder (16 g) was weighted into a Pyrex bottle. The product was spiked with 2-(2-methylpropyl)-5-methyl-3-oxazoline (10 mg) and the sample was then reconstituted in 130 ml of hot (80° C.) water. Sample without addition of oxazoline was prepared analogously and used as reference. The impact of the addition of the oxazoline on the intensity of malty aroma (characteristic aroma of 3-methylbutanal) was evaluated by a sensory panel as described in example 9. […] To further substantiate the sensory results, the sample was analyzed by SPME-GCxGC-TOFMS.
The results (Table 7) indicate that the conversion of oxazoline to Strecker aldehyde is very high and reaches 77% in the analysed coffee mix sample (incubation 60° C./15 min).

[2] = Impact of pH value on release of Strecker aldehyde from 3-oxazoline precursor in buffer solution at 37° C.; assay type: physicochemical
Description: (§2) 2-(2-Methylpropyl)-5-methyl-3-oxazoline (dissolved in pentane/diethyl ether; 2 mL) was added to ethanol (0.5 mL). The pentane/diethyl ether was carefully evaporated, and finally made up to 5 mL with ethanol. […] A control experiment was performed with 2-(2-methylpropyl)-5-methyl-3-oxazoline and the respective standard without adding the respective buffer solution. For headspace measurements, the samples were directly subjected to HS-GC-MS. For liquid measurements, the samples were cooled in an ice bath and extracted with diethyl ether (3×15 mL; liquid-liquid extraction). The organic phases were combined, dried over anhydrous sodium sulphate, and the solvent was distilled off (20° C., 500 mbar) to about 4 mL. An aliquot (2 μL) was used for the stable isotope dilution assays ((GC-) GC-MS).
as §2, with “2-Methylphenyl-5-methyl-3-oxazoline” for “2-(2-Methylpropyl)-5-methyl-3-oxazoline”, “2-methylphenyl-5-methyl-3-oxazoline” for “2-(2-methylpropyl)-5-methyl-3-oxazoline”

[3] = Sensory panel, malty aroma of cereal based pap spiked with oxazoline; settings: cereal powder 12.5 g + 10 mg oxazoline, scale −5 to +5
Description: (§3) Cocoa-malt-based beverage (7.5 g) was weighted into a Pyrex bottle. The product was spiked with 2-(2-methylpropyl)-5-methyl-3-oxazoline (10 mg) and the sample was then reconstituted in 100 mL of cold (10° C.) or warm (60° C.) semi-skimmed milk. Samples without addition of oxazoline were prepared analogously and used as references. The impact of the addition of the oxazoline on the intensity of malty aroma (characteristic aroma of 3-methylbutanal) was evaluated by a sensory panel. Comparative profiling procedure was conducted using an 11-point scale ranging from −5 to +5. Assessors were asked to score the sample containing oxazoline against the reference. Reference product containing no added oxazoline was arbitrary positioned on the zero of the scale.
Cereal powder (12.5 g) was weighted into a plastic dish. The product was spiked with 2-(2-methylpropyl)-5-methyl-3-oxazoline (10 mg) and the sample was then reconstituted in 100 ml of warm (60° C.) water or semi-skimmed milk. Sample without addition of oxazoline was prepared analogously and used as reference. The impact of the addition of the oxazoline on the intensity of malty aroma (characteristic aroma of 3-methylbutanal) was evaluated by a sensory panel as described in example 9.

[4] = Sensory panel, malty aroma of cocoa-malt-based beverage spiked with oxazoline; settings: cocoa-malt-based beverage 7.5 g + 10 mg oxazoline
Description: as §3

[5] = Release of Strecker aldehyde from 3-oxazoline precursor stirred in water at 37° C. (stable isotope dilution, HS-GC-MS / GC-MS); assay type: physicochemical; settings: 5 min after addition of water at 37° C.
[6] = Sensory panel, malty aroma of coffee mix beverage spiked with oxazoline; settings: coffee mix powder 16 g + 10 mg oxazoline, 130 ml hot (80° C.) water; scale −5 to +5, reference at zero
Description: as §3, §1

[7] = Headspace GC-MS release of Strecker aldehydes from spiked chocolate on addition of saliva; assay type: physicochemical; settings: headspace injection; for Concentration in “release sample” (after addition of saliva): spiked chocolate 2 g + saliva 2 mL, 5 min at 37° C.; for Concentration in blank sample (prior addition of saliva): spiked chocolate 2 g melted at 37° C.
Description: To further confirm the PTR-MS data, all experiments are repeated using a headspace GC-MS system. Commercial chocolate (50% of cocoa content) was frozen in liquid nitrogen and ground to a powder using a mixer. An aliquote (25 g) was melted at 35° C. using a water bath and [^2H6]-methylpropanal, [^2H2]-3-methylbutanal as well as [^13C2]-phenylacetaldehyde were added. After stirring for 5 min, the chocolate was cooled to room temperature and used for all further headspace experiments (“spiked chocolate”). The newly spiked chocolate (2 g) was weighed into a headspace vial (10 mL; sealed with a gastight septum) containing a stirring bar. The chocolate was melted at 37° C. for 5 min under stirring. Then, the first injection (1 mL) was done at 37° C. used as blank sample. Afterwards, the sample was cooled to approx. 16° C. After 30 min, saliva (2 mL) was added through the septum via a syringe, and the sample was again warmed to 37° C. under stirring. After a further 5 min, the second injection (1 mL) was done again at 37° C. (“release sample”). All experiments were done in triplicates. 2-Methylbutanal was quantified using [^2H2]-3-methylbutanal.

[8] = PTR-MS release of Strecker aldehydes from spiked chocolate on addition of water or saliva; assay type: physicochemical; settings: spiked chocolate 5 g, water (5 mL, pH 4) or saliva (5 mL), 37° C.; FIG. 2, FIG. 3
Description: Commercial chocolate (50% of cocoa content) was frozen in liquid nitrogen and ground to a powder using a mixer. An aliquote (50 g) was melted at 35° C. using a water bath and [^2H2]-3-methylbutanal as well as [^13C2]-phenylacetaldehyde were added. After stirring for 5 min, the chocolate was cooled to room temperature and used for all further PTR-MS experiments (“spiked chocolate”).
5.0 g of spiked chocolate was weighed into an iodine flask (200 mL; sealed with a gastight septum) containing a stirring bar. The chocolate was melted at 37° C. for 5 min under stirring. Afterwards, the flask was connected to a PTR-MS instrument via a peek capillary (experiments were done at 37° C.). After defined time (details are given in the respective figures via number of cycles), water (5 mL, pH 4) or saliva (5 mL), respectively, was singly added through the septum via a syringe.
As blank, methylpropanal (2.5 μg), 3-methylbutanal (6.25 μg), phenylacetaldehyde (25 μg), [^2H2]-3-methylbutanal (4.3 μg), and [^13C2]-phenylacetaldehyde (20 μg) were added to sunflower oil (10 g) in an iodine flask (200 mL). Following parameters are used for PTR-MS measurement: inlet temperature 120° C., chamber temperature 80° C., inlet flow 70 mL/min. The mass traces and the dwell time used to monitor Strecker aldehydes are shown below: […]

CC(C)CC1N=CC(C)O1 (stereo not drawn) [2-(2-methylpropyl)-5-methyl-3-oxazoline]
Theoretical release from spike, 3-methylbutanal (ug/vial) [1]: 244 ug/vial | Yield of conversion of oxazoline to Strecker aldehyde ([1]; incubation 60° C./15 min): 77% | 3-methylbutanal (ug/vial), sample spiked with oxazoline ([1]; incubation 60° C./15 min, non-spiked reference 28): 215 ug/vial | 3-methylbutanal (mol %) generated from precursor ([2]; pH 5, Control without addition of buffer solution): 0.5 mol % | 3-methylbutanal (mol %) generated from precursor ([2]; pH 5 buffer, 10 min, 37° C.): 95.1 mol % | 3-methylbutanal (mol %) generated from precursor ([2]; pH 5 buffer, 60 min, 37° C.): 98.9 mol % | 3-methylbutanal (mol %) generated from precursor ([2]; pH 7, Control without addition of buffer solution): 0.3 mol % | 3-methylbutanal (mol %) generated from precursor ([2]; pH 7 buffer, 10 min, 37° C.): 54.8 mol % | 3-methylbutanal (mol %) generated from precursor ([2]; pH 7 buffer, 60 min, 37° C.): 97.9 mol % | 3-methylbutanal (mol %) generated from precursor ([2]; pH 9, Control without addition of buffer solution): 0.3 mol % | 3-methylbutanal (mol %) generated from precursor ([2]; pH 9 buffer, 10 min, 37° C.): 9.0 mol % | 3-methylbutanal (mol %) generated from precursor ([2]; pH 9 buffer, 60 min, 37° C.): 35.7 mol % | malty note score against reference ([3]; 100 ml warm (60° C.) semi-skimmed milk): 1.2 | malty note score against reference ([3]; 100 ml warm (60° C.) water): 1.7 | malty note score against reference ([4]; cold (10° C.) semi-skimmed milk, 11-point scale −5 to +5, reference at zero): 3.6 | malty note score against reference ([4]; warm (60° C.) semi-skimmed milk (hot milk), scale −5 to +5, reference at zero): 3.3 | 3-methylbutanal released / precursor converted to Strecker aldehyde [5]: about 75% | malty note score against reference [6]: 3.5

CCC(C)C=O (stereo not drawn) [2-methylbutanal]
Concentration in “release sample” (after addition of saliva) [7]: 3009 μg/kg of chocolate | Concentration in blank sample (prior addition of saliva) [7]: 354 μg/kg of chocolate | release from spiked chocolate after addition of water or saliva (PTR-MS) [8]: clearly increased

CC(C)CC=O [3-methylbutanal]
Concentration in “release sample” (after addition of saliva) [7]: 4456 μg/kg of chocolate | Concentration in blank sample (prior addition of saliva) [7]: 502 μg/kg of chocolate | release from spiked chocolate after addition of water or saliva (PTR-MS) [8]: clearly increased

CC(C)C=O [methylpropanal]
Concentration in “release sample” (after addition of saliva) [7]: 1103 μg/kg of chocolate | Concentration in blank sample (prior addition of saliva) [7]: 25.4 μg/kg of chocolate | release from spiked chocolate after addition of water or saliva (PTR-MS) [8]: clearly increased

O=CCc1ccccc1 [phenylacetaldehyde]
Concentration in “release sample” (after addition of saliva) [7]: < LoD (due to headspace | Concentration in blank sample (prior addition of saliva) [7]: < LoD (due to headspace | release from spiked chocolate after addition of water or saliva (PTR-MS) [8]: clearly increased
